Measurements published in publication PMC5956543, “Antimicrobial and antioxidant activities of triterpenoid and phenolic derivatives from two Cameroonian Melastomataceae plants: Dissotis senegambiensis and Amphiblemma monticola” (BMC Complementary and Alternative Medicine, 2018).
≈ marks a conversion by molar mass, not a printed value. Read-outs that look alike come from different tables or passages of the source.

Experiments:
S. aureus ATCC25923 = assay: Broth microdilution antimicrobial assay (MIC/MMC); format: cell-based, Staphylococcus aureus; conditions: for MIC / MBC: Staphylococcus aureus, 24 h; for MIC: 37 °C; for MBC: no growth after sub-culturing
Experimental: (§1) The microorganisms used in this study include four bacterial (Staphylococcus aureus ATCC25923, methicillin sensitive S. aureus MSSA1, methicillin resistant S. aureus MRSA3 and methicillin resistant S. aureus MRSA4) and three yeast strains (Candida albicans ATCC10231, Candida tropicalis PK233 and Cryptococcus neoformans H99). These microorganisms were taken from our laboratory collection. The fungal and bacterial strains were grown at 37 °C and maintained on Sabouraud Dextrose Agar (SDA, Conda, Madrid, Spain) and nutrient agar (NA, Conda) slants respectively.
(§2) The inocula of bacteria and yeasts were prepared from overnight cultures as previously described. Absorbance was read spectrophotometrically at 530 nm and 600 nm for yeasts and bacteria respectively. The final concentrations of microbial suspensions were 2.5 × 10^5 cells/mL for yeasts and 10^6 CFU/mL for bacteria.
(§3) The antimicrobial activity was evaluated by determining the minimum inhibitory concentrations (MICs). MICs of extracts and compounds were determined by broth micro dilution. Each test sample was dissolved in 10% v/v aqueous dimethylsulfoxide (DMSO) to give a stock solution. This was serially diluted two-fold in Mueller-Hinton Broth (MHB) for bacteria and Sabouraud Dextrose Broth (SDB) for fungi to obtain a concentration range of 4096 to 0.25 μg/mL. Then, 100 μL of each sample concentration was added to respective wells (96-well micro plate) containing 90 μL of SDB/ MHB and 10 μL of inoculum to give final concentration ranges of 2048 to 4 μg/mL (for extracts) and 256 to 0.125 μg/mL (for compounds). Dilutions of nystatin (Sigma-Aldrich, Steinheim, Germany) and ciprofloxacin (Sigma-Aldrich, Steinheim, Germany) were used as positive controls for yeasts and bacteria respectively. Broth with 10 μL of DMSO was used as negative control. The cultured micro plates were covered; then, the contents of each well were mixed thoroughly using a plate shaker (Flow Laboratory, Germany) and incubated at 37 °C for 24 h (bacteria) and 48 h (yeasts) under shaking. After the incubation period, MICs were assessed visually and were taken as the lowest sample concentration at which there was no growth or virtually no growth. The lowest concentration that yielded no growth after the sub-culturing was considered as the minimum microbicidal concentrations (MMCs). All the tests were performed in triplicate.

S. aureus MRSA3 = assay: Broth microdilution antimicrobial assay (MIC/MMC); format: cell-based, Staphylococcus aureus; conditions: for MBC / MIC: Staphylococcus aureus, 24 h; for MBC / MIC / MMC/MIC: S. aureus MRSA3; for MBC: no growth after sub-culturing; for MIC: 37 °C
Experimental: as §1, §2, §3

S. aureus MRSA4 = assay: Broth microdilution antimicrobial assay (MIC/MMC); format: cell-based, Staphylococcus aureus; conditions: for MBC / MIC: Staphylococcus aureus, 24 h; for MBC / MIC / MMC/MIC: S. aureus MRSA4; for MBC: no growth after sub-culturing; for MIC: 37 °C
Experimental: as §1, §2, §3

S. aureus MSSA1 = assay: Broth microdilution antimicrobial assay (MIC/MMC); format: cell-based, Staphylococcus aureus; conditions: for MIC / MBC: Staphylococcus aureus, 24 h; for MIC: 37 °C; for MBC: no growth after sub-culturing
Experimental: as §1, §2, §3

C. albicans ATCC10231 = assay: Broth microdilution antimicrobial assay (MIC/MMC); format: cell-based, Candida albicans; conditions: for MIC: Candida albicans, 37 °C, 48 h, read-out: MIC; for MMC: no growth after sub-culturing
Experimental: as §1, §2, §3

C. tropicalis PK233 = assay: Broth microdilution antimicrobial assay (MIC/MMC); format: cell-based, Candida tropicalis; conditions: for MIC / MFC: Candida tropicalis, 48 h; for MIC: 37 °C, read-out: MIC; for MFC: no growth after sub-culturing
Experimental: as §1, §2, §3

C. neoformans H99 = assay: Broth microdilution antimicrobial assay (MIC/MMC); format: cell-based, Cryptococcus neoformans; conditions: for MIC / MFC: Cryptococcus neoformans, 48 h; for MIC: 37 °C, read-out: MIC; for MFC: no growth after sub-culturing
Experimental: as §1, §2, §3

[1] = system: bacterial and fungal strains; assay: Broth microdilution MIC, range over all tested strains; format: cell-based
Experimental: as §1, §2, §3

[2] = Ferric reducing antioxidant power (FRAP) assay; conditions: Perl's Prussian blue at 700 nm; Fig. 2; BHT positive control
Experimental: The FRAP was determined by the Fe^3+-Fe^2+ transformation in the presence of extracts and compounds as previously described. The Fe^2+ was monitored by measuring the formation of Perl’s Prussian blue at 700 nm. Butylated hydroxytoluene (BHT) was used as a positive control. All the tests were performed in triplicate.

[3] = DPPH free radical scavenging assay; conditions: Fig. 3; vitamin C standard
Experimental: The free radical scavenging activity of extracts and compounds was evaluated according to described methods. The EC50 (μg/ml), which is the amount of sample necessary to inhibit by 50% the absorbance of free radical DPPH was calculated. Vitamin C was used as a standard control. All the analyses were carried out in triplicate.

S. aureus strains = assay: Broth microdilution MIC, range over the S. aureus strains; format: cell-based; conditions: Staphylococcus aureus; range over the four S. aureus strains
Experimental: as §1, §2
The antimicrobial activity was evaluated by determining the minimum inhibitory concentrations (MICs). MICs of extracts and compounds were determined by broth micro dilution. Each test sample was dissolved in 10% v/v aqueous dimethylsulfoxide (DMSO) to give a stock solution. […] After the incubation period, MICs were assessed visually and were taken as the lowest sample concentration at which there was no growth or virtually no growth. […]

[4] = range over all bacterial and fungal strains, read-out: MIC

Row | MIC (S. aureus ATCC25923) | MIC (S. aureus MRSA3) | MIC (S. aureus MRSA4) | MIC (S. aureus MSSA1) | MIC (C. albicans ATCC10231) | MIC (C. tropicalis PK233) | MIC (C. neoformans H99) | MIC [1, 4] | MMC/MIC (S. aureus ATCC25923) | MMC/MIC (S. aureus MRSA3) | MMC/MIC (S. aureus MRSA4) | MMC/MIC (S. aureus MSSA1) | MMC/MIC (C. tropicalis PK233) | SMILES | MBC (S. aureus ATCC25923) | MBC (S. aureus MRSA3) | MBC (S. aureus MRSA4) | MBC (S. aureus MSSA1) | MMC (C. albicans ATCC10231) | MFC (C. tropicalis PK233) | MFC (C. neoformans H99) | also measured
1 | 256 µg/mL (≈ 561 µM) | 128 µg/mL (≈ 280 µM) | 128 µg/mL (≈ 280 µM) | 128 µg/mL (≈ 280 µM) | 256 µg/mL (≈ 561 µM) | 256 µg/mL (≈ 561 µM) | 128 µg/mL (≈ 280 µM) | 128 to 256 µg/mL (≈ 280 to 561 µM) |  |  |  |  |  | C[C@H]1[C@H](C)CC[C@]2(C(=O)O)CC[C@]3(C)C(=CC[C@@H]4[C@@]5(C)CC[C@H](O)C(C)(C)[C@@H]5CC[C@]43C)[C@H]12 [Compound 3, ursolic acid] | > 256 µg/mL | > 256 µg/mL | > 256 µg/mL | > 256 µg/mL | > 256 µg/mL | > 256 µg/mL | > 256 µg/mL | antimicrobial activity (in words) ([1]; all the tested bacterial and fungal species): active against all the tested bacterial and fungal species
2 | 32 µg/mL (≈ 96.9 µM) | 16 µg/mL (≈ 48.4 µM) | 32 µg/mL (≈ 96.9 µM) | 16 µg/mL (≈ 48.4 µM) | 32 µg/mL (≈ 96.9 µM) | 32 µg/mL (≈ 96.9 µM) | 32 µg/mL (≈ 96.9 µM) | 16 to 32 µg/mL (≈ 48.4 to 96.9 µM) | 1 | 2 | 2 | 1 | 2 | COc1cc2c(=O)oc3c(OC)c(O)cc4c(=O)oc(c1O)c2c34 [Compound 7, 3,4′-di-O-methylellagic acid] | 32 µg/mL (≈ 96.9 µM) | 32 µg/mL (≈ 96.9 µM) | 64 µg/mL (≈ 194 µM) | 16 µg/mL (≈ 48.4 µM) | 64 µg/mL | 64 µg/mL (≈ 194 µM) | 32 µg/mL (≈ 96.9 µM) | activity against methicillin-resistant S. aureus (in words) (S. aureus MRSA3; MRSA3): prominent activity; activity against methicillin-resistant S. aureus (in words) (S. aureus MRSA4; MRSA4): prominent activity; MMC/MIC (C. albicans ATCC10231): 2; MMC/MIC (C. neoformans H99): 1; reducing power (FRAP, in words) [2]: lowest reducing power; DPPH radical-scavenging activity (in words) [3]: highest EC50; MIC (S. aureus strains): 16 to 32 µg/mL (≈ 48.4 to 96.9 µM)

More lines, now with the values behind:

Row | SMILES | MIC (S. aureus ATCC25923) | MIC (S. aureus MRSA3) | MIC (S. aureus MRSA4) | MIC (S. aureus MSSA1) | MIC (C. albicans ATCC10231) | MIC (C. tropicalis PK233) | MIC (C. neoformans H99) | MIC [1, 4] | MMC/MIC (S. aureus ATCC25923) | MMC/MIC (S. aureus MRSA3) | MMC/MIC (S. aureus MRSA4) | MMC/MIC (S. aureus MSSA1) | MMC/MIC (C. tropicalis PK233) | MBC (S. aureus ATCC25923) | MBC (S. aureus MRSA3) | MBC (S. aureus MRSA4) | MBC (S. aureus MSSA1) | MMC (C. albicans ATCC10231) | MFC (C. tropicalis PK233) | MFC (C. neoformans H99) | also measured
3 | O=C(C=Cc1ccc(O)cc1)OCC1OC(Oc2c(-c3ccc(O)cc3)oc3cc(O)cc(O)c3c2=O)C(O)C(O)C1O (stereo not drawn) [Compound 6, trans-tiliroside] | 32 µg/mL (≈ 53.8 µM) | 64 µg/mL (≈ 108 µM) | 128 µg/mL (≈ 215 µM) | 64 µg/mL (≈ 108 µM) | 64 µg/mL (≈ 108 µM) | 64 µg/mL (≈ 108 µM) | 64 µg/mL (≈ 108 µM) | 32 to 128 µg/mL (≈ 53.8 to 215 µM) | 2 | 2 | 1 | 1 | 1 | 64 µg/mL (≈ 108 µM) | 128 µg/mL (≈ 215 µM) | 128 µg/mL (≈ 215 µM) | 64 µg/mL (≈ 108 µM) | 64 µg/mL | 64 µg/mL (≈ 108 µM) | 128 µg/mL (≈ 215 µM) | MMC/MIC (C. albicans ATCC10231): 1; MMC/MIC (C. neoformans H99): 2
4 | COC(=O)c1cc(O)c(O)c(O)c1-c1c(C(=O)OC)cc(O)c(O)c1O [Compound 8, dimethyl 4,4′,5,5′,6,6′-hexahydroxybiphenyl-2,2′-dicarboxylate] | 32 µg/mL (≈ 87.4 µM) | 64 µg/mL (≈ 175 µM) | 128 µg/mL (≈ 349 µM) | 32 µg/mL (≈ 87.4 µM) | 128 µg/mL (≈ 349 µM) | 16 µg/mL (≈ 43.7 µM) | 32 µg/mL (≈ 87.4 µM) | 8 to 128 µg/mL (≈ 21.8 to 349 µM) | 2 | 2 | 2 | 1 | 1 | 64 µg/mL (≈ 175 µM) | 128 µg/mL (≈ 349 µM) | 256 µg/mL (≈ 699 µM) | 32 µg/mL (≈ 87.4 µM) | > 256 µg/mL | 16 µg/mL (≈ 43.7 µM) | 32 µg/mL (≈ 87.4 µM) | MMC/MIC (C. neoformans H99): 1; reducing power (FRAP, in words) [2]: highest reducing power; DPPH radical-scavenging activity (in words) [3]: lowest EC50
5 | O=c1cc(-c2ccc(O)cc2)oc2c([C@@H]3O[C@H](CO)[C@@H](O)[C@H](O)[C@H]3O)c(O)cc(O)c12 [Compound 5, vitexin] | 64 µg/mL (≈ 148 µM) | 64 µg/mL (≈ 148 µM) | 128 µg/mL (≈ 296 µM) | 64 µg/mL (≈ 148 µM) | 128 µg/mL (≈ 296 µM) | 64 µg/mL (≈ 148 µM) | 128 µg/mL (≈ 296 µM) |  | 2 | 2 | 2 | 2 | 2 | 128 µg/mL (≈ 296 µM) | 128 µg/mL (≈ 296 µM) | 256 µg/mL (≈ 592 µM) | 128 µg/mL (≈ 296 µM) | 256 µg/mL | 128 µg/mL (≈ 296 µM) | 128 µg/mL (≈ 296 µM) | MMC/MIC (C. albicans ATCC10231): 2; MMC/MIC (C. neoformans H99): 1; MIC [1]: 64 to 128 µg/mL (≈ 148 to 296 µM)
